Assay results published in US9499502B2, “5-substituted iminothiazines and their mono- and dioxides as BACE inhibitors, compositions, and their use” (Merck Sharp & Dohme Corp., priority 2011, dated 2016).

target: soluble human BACE1 catalytic domain (Homo sapiens (Human), UniProt P56817); assay: BACE1 HTRF FRET Assay; conditions: BACE1 Ki (nM)
Sequence (P56817 75-416): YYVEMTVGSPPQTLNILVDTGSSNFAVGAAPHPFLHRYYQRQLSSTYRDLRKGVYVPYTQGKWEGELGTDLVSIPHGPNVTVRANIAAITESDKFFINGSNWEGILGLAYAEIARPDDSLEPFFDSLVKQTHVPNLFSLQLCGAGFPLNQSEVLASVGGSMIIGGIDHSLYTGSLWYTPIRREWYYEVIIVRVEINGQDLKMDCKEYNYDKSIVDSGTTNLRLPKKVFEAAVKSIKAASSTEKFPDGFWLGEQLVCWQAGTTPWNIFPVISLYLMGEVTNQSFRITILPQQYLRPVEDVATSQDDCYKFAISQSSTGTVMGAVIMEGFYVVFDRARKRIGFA

| SMILES | Ki |
| --- | --- |
| C[C@@]1(c2sc(-c3nnc(-c4ccc(Cl)cc4)o3)cc2F)CS(=O)(=O)[C@@](C)(c2ccccn2)C(=N)N1 [Example 27bz-b] | 791 nM |

same assay, conditions: at 10 μM

| SMILES | BACE1 inhibition, % Inh. at 10 μM |
| --- | --- |
| Cc1nc2cc(CC3(C)C(=N)N[C@](C)(c4cc(F)ccc4F)CS3(=O)=O)ccc2s1 (stereo partly drawn) [Example 32-b] | 7% Inh at 10 μM |

same assay, conditions: read-out: BACE1 Ki

| SMILES | Ki |
| --- | --- |
| CC1(C)C(=N)N[C@](C)(c2cc(-c3cccc(-c4nnco4)c3)cs2)CS1(=O)=O [Example 27ah] | 41.5 nM |
| CC1(C)C(=N)N[C@](C)(c2cc(-c3cccc(-c4cnco4)c3)cs2)CS1(=O)=O [Example 27ai] | 74 nM |
| CC1(C)C(=N)N[C@](C)(c2cc(-c3cccc(-c4ccno4)c3)cs2)CS1(=O)=O [Example 27aj] | 113 nM |
| CC1(C)C(=N)N[C@](C)(c2cc(-c3cncc(-c4ncco4)c3)cs2)CS1(=O)=O [Example 27ak] | 128 nM |
| CC1(C)C(=N)N[C@](C)(c2cc(-c3cncc(-c4cnco4)c3)cs2)CS1(=O)=O [Example 27al] | 93.8 nM |
| CC1(C)C(=N)N[C@](C)(c2cc(-c3cc(F)cc(-c4cnco4)c3)cs2)CS1(=O)=O [Example 27am] | 80.6 nM |
| CC1(C)C(=N)N[C@](C)(c2sc(-c3cncc(C#N)c3)cc2F)CS1(=O)=O [Example 27ap] | 102 nM |
| CC1(C)C(=N)N[C@](C)(c2sc(-c3cccc(-c4nnco4)c3)cc2F)CS1(=O)=O [Example 27ar] | 11 nM |
| COc1cncc(-c2cc(F)c([C@]3(C)CS(=O)(=O)C(C)(C)C(=N)N3)s2)n1 [Example 27au] | 943 nM |
| CC1(C)C(=N)N[C@](C)(c2sc(-c3ccnc(C4CC4)c3)cc2F)CS1(=O)=O [Example 27av] | 663 nM |
| Cc1noc(-c2cccc(-c3cc(F)c([C@]4(C)CS(=O)(=O)C(C)(C)C(=N)N4)s3)c2)n1 [Example 27aw] | 125 nM |
| Cc1nnc(-c2ccc(F)c(-c3cc(F)c([C@]4(C)CS(=O)(=O)C(C)(C)C(=N)N4)s3)c2)o1 [Example 27ax] | 858 nM |
| Cc1nnc(-c2cccc(-c3cc(F)c([C@]4(C)CS(=O)(=O)C(C)(C)C(=N)N4)s3)c2)o1 [Example 27ay] | 480 nM |
| CC1(C)C(=N)N[C@](C)(c2sc(-c3cncc(-c4nnco4)c3)cc2F)CS1(=O)=O [Example 27az] | 14 nM |
| CC1(C)C(=N)N[C@](C)(c2sc(-c3nnc(-c4ccc(C#N)cc4)o3)cc2F)CS1(=O)=O [Example 27bi] | 48.9 nM |
| C[C@@]1(c2sc(-c3cccc(C#N)c3)cc2F)CS(=O)(=O)[C@](C)(CC(F)(F)F)C(=N)N1 [Example 27bj-b] | 829 nM |
| C[C@@]1(c2sc(-c3cccc(-c4nnco4)c3)cc2F)CS(=O)(=O)[C@](C)(CC(F)(F)F)C(=N)N1 [Example 27bk-b] | 106 nM |
| COc1cccc(-c2cc(F)c([C@]3(C)CS(=O)(=O)[C@](C)(CC(F)(F)F)C(=N)N3)s2)c1 [Example 27bl-b] | 7310 nM |
| COc1cncc(-c2cc(F)c([C@]3(C)CS(=O)(=O)C(C)(CC(F)(F)F)C(=N)N3)s2)c1 (stereo partly drawn) [Example 27bn-a] | 8020 nM |
| C[C@@]1(c2sc(-c3cccc(C#N)c3)cc2F)CS(=O)(=O)[C@@](C)(c2ccccn2)C(=N)N1 [Example 27bo-a] | 132 nM |

| SMILES | Ki |
| --- | --- |
| C[C@@]1(c2ccccn2)C(=N)N[C@](C)(c2sc(-c3cccc(C#N)c3)cc2F)CS1(=O)=O [Example 27bo-b] | 2720 nM |
| C[C@@]1(c2sc(-c3cccc(-c4nnco4)c3)cc2F)CS(=O)(=O)[C@@](C)(c2ccccn2)C(=N)N1 [Example 27bp-a] | 17.8 nM |
| C[C@@]1(c2ccccn2)C(=N)N[C@](C)(c2sc(-c3cccc(-c4nnco4)c3)cc2F)CS1(=O)=O [Example 27bp-b] | 396 nM |
| C[C@@]1(c2sc(-c3cncc(C#N)c3)cc2F)CS(=O)(=O)[C@@](C)(c2ccccn2)C(=N)N1 [Example 27bq-a] | 268 nM |
| C[C@@]1(c2ccccn2)C(=N)N[C@](C)(c2sc(-c3cncc(C#N)c3)cc2F)CS1(=O)=O [Example 27bq-b] | 2500 nM |
| C[C@@]1(c2cccc(F)c2)C(=N)N[C@](C)(c2sc(-c3cccc(C#N)c3)cc2F)CS1(=O)=O [Example 27br-b] | 4930 nM |
| C[C@@]1(c2ccccc2F)C(=N)N[C@](C)(c2sc(-c3cccc(C#N)c3)cc2F)CS1(=O)=O [Example 27bs-b] | 3170 nM |
| COCC1(COC)C(=N)N[C@](C)(c2sc(-c3cccc(C#N)c3)cc2Cl)CS1(=O)=O [Example 27bt] | 135 nM |
| COCC1(COC)C(=N)N[C@](C)(c2sc(-c3cccc(-c4nnco4)c3)cc2Cl)CS1(=O)=O [Example 27bu] | 1170 nM |
| COCC1(COC)C(=N)N[C@](C)(c2sc(-c3cc4cccc(OC)c4[nH]3)cc2Cl)CS1(=O)=O [Example 27bv] | 79 nM |
| C[C@]1(CC2CCOCC2)C(=N)N[C@](C)(c2sc(-c3cncc(C#N)c3)cc2Cl)CS1(=O)=O [Example 27bw] | 163 nM |
| C[C@]1(CC(F)(F)F)C(=N)N[C@](C)(c2sc(-c3nnc(-c4ccc(Cl)cc4)o3)cc2F)CS1(=O)=O [Example 27by-a] | 29.5 nM |
| C[C@@]1(c2sc(-c3nnc(-c4ccc(Cl)cc4)o3)cc2F)CS(=O)(=O)[C@](C)(CC(F)(F)F)C(=N)N1 [Example 27by-b] | 450 nM |
| C[C@@]1(c2sc(-c3nnc(-c4ccc(Cl)cc4)o3)cc2F)CS(=O)(=O)[C@@](C)(c2ccccn2)C(=N)N1 [Example 27bz-a] | 51 nM |
| CC1(C)C(=N)N[C@](C)(c2sc(-c3cc4ccccc4s3)cc2Cl)CS1(=O)=O [Example 27f] | 1180 nM |
| CC1(C)C(=N)N[C@](C)(c2sc(-c3csc4ccccc34)cc2Cl)CS1(=O)=O [Example 27g] | 2030 nM |
| CC1(C)C(=N)N[C@](C)(c2sc(-c3cccc(OC(F)(F)F)c3)cc2Cl)CS1(=O)=O [Example 27h] | 70.9 nM |
| CC1(C)C(=N)N[C@](C)(c2sc(-c3cc(F)cc(F)c3)cc2Cl)CS1(=O)=O [Example 27i] | 170 nM |
| CC1(C)C(=N)N[C@](C)(c2sc(-c3ccc(F)c(C#N)c3)cc2Cl)CS1(=O)=O [Example 27j] | 5150 nM |
| COc1cc(-c2cc(Cl)c([C@]3(C)CS(=O)(=O)C(C)(C)C(=N)N3)s2)ccn1 [Example 27k] | 926 nM |

| SMILES | Ki |
| --- | --- |
| CC1(C)C(=N)N[C@](C)(c2sc(-c3cnn4c3CCC4)cc2Cl)CS1(=O)=O [Example 27m] | 5340 nM |
| CC1(C)C(=N)N[C@](C)(c2sc(-c3ccn4ncnc4c3)cc2Cl)CS1(=O)=O [Example 27n] | 273 nM |
| CC1(C)C(=N)N[C@](C)(c2sc(-c3cccc(OC(F)F)c3)cc2Cl)CS1(=O)=O [Example 27o] | 66.6 nM |
| CC1(C)C(=N)N[C@](C)(c2sc(-c3ccc4nncn4c3)cc2Cl)CS1(=O)=O [Example 27p] | 2530 nM |
| CC1(C)C(=N)N[C@](C)(c2sc(-c3ccc4ncnn4c3)cc2Cl)CS1(=O)=O [Example 27q] | 297 nM |
| COCCn1cc(-c2cc(Cl)c([C@]3(C)CS(=O)(=O)C(C)(C)C(=N)N3)s2)cn1 [Example 27r] | 448 nM |
| CC1(C)C(=N)N[C@](C)(c2sc(-c3ccc(C#N)c(C(F)(F)F)c3)cc2Cl)CS1(=O)=O [Example 27t] | 291 nM |
| CC1(C)C(=N)N[C@](C)(c2sc(-c3cnc(-c4ccc(F)cc4)o3)cc2Cl)CS1(=O)=O [Example 27v] | 71.4 nM |
| COc1cncc(-c2cc(Cl)c([C@]3(C)CS(=O)(=O)C(C)(C)C(=N)N3)s2)n1 [Example 27w] | 1290 nM |
| CC1(C)C(=N)N[C@](C)(c2sc(-c3coc(-c4ccc(F)cc4)n3)cc2Cl)CS1(=O)=O [Example 27x] | 1110 nM |
| COc1ncc(-c2cc(Cl)c([C@]3(C)CS(=O)(=O)C(C)(C)C(=N)N3)s2)cn1 [Example 27y] | 1720 nM |
| CC1(C)C(=N)N[C@](C)(c2sc(-c3cccc(C#N)c3F)cc2Cl)CS1(=O)=O [Example 27z] | 400 nM |
| COc1cccn2cc(-c3cc(Cl)c([C@]4(C)CS(=O)(=O)C(C)(C)C(=N)N4)s3)nc12 [Example 28a] | 804 nM |
| CC1(C)C(=N)N[C@](C)(c2sc(-c3cn4ccsc4n3)cc2Cl)CS1(=O)=O [Example 28b] | 2630 nM |
| COc1cccc2nc(-c3cc(Cl)c([C@]4(C)CS(=O)(=O)C(C)(C)C(=N)N4)s3)cn12 [Example 28c] | 108 nM |
| CC1(C)C(=N)N[C@](C)(c2nc3ccc(-c4cccnc4)cc3s2)CS1(=O)=O [Example 29a] | 3380 nM |
| CC1(C)C(=N)N[C@](C)(c2nc3ccc(-c4ccc(F)cc4)cc3s2)CS1(=O)=O [Example 29b] | 2330 nM |
| CC1(C)C(=N)N[C@](C)(c2nc3ccc(-c4cccc(C#N)c4)cc3s2)CS1(=O)=O [Example 29c] | 2380 nM |
| COc1cccc(-c2ccc3nc([C@]4(C)CS(=O)(=O)C(C)(C)C(=N)N4)sc3c2)c1 [Example 29d] | 2840 nM |
| COc1cccc([C@@]2(C)C(=N)N[C@](C)(c3cc(F)ccc3F)CS2(=O)=O)c1 [Example 32e-a] | 1100 nM |

same assay, conditions: read-out: BACE1 Ki; Ki calculated from IC50 using the Cheng-Prusoff equation

| SMILES | Ki |
| --- | --- |
| CC1(C)C(=N)N[C@](C)(c2sc(-c3cc(F)cc(-c4nnco4)c3)cc2Cl)CS1(=O)=O [Example 27ab] | 15.4 nM |
| CC1(C)C(=N)N[C@](C)(c2sc(-c3cncc(-c4cnco4)c3)cc2Cl)CS1(=O)=O [Example 27ac] | 22.3 nM |
| CC1(C)C(=N)N[C@](C)(c2sc(-c3cncc(-c4ncco4)c3)cc2Cl)CS1(=O)=O [Example 27ad] | 44.4 nM |
| CC1(C)C(=N)N[C@](C)(c2sc(-c3cccc(-c4nnco4)c3)cc2Cl)CS1(=O)=O [Example 27b] | 8.2 nM |
| CC1(C)C(=N)N[C@](C)(c2sc(-c3nnc(-c4ccccc4)o3)cc2Cl)CS1(=O)=O [Example 27ba] | 258 nM |
| COc1ccc(-c2nnc(-c3cc(Cl)c([C@]4(C)CS(=O)(=O)C(C)(C)C(=N)N4)s3)o2)cc1 [Example 27bd] | 76.1 nM |
| CC1(C)C(=N)N[C@](C)(c2sc(-c3nnc(-c4ccc(C#N)cc4)o3)cc2Cl)CS1(=O)=O [Example 27be] | 49.2 nM |
| CC1(C)C(=N)N[C@](C)(c2sc(-c3cccc(-c4cnco4)c3)cc2Cl)CS1(=O)=O [Example 27c] | 12.8 nM |
| CC1(C)C(=N)N[C@](C)(c2sc(-c3cccc(-c4ccno4)c3)cc2Cl)CS1(=O)=O [Example 27d] | 64.3 nM |

same assay, conditions: read-out: BACE1 inhibition, % Inh. at 10 μM, at 10 μM

| SMILES | inhibition at 10 µM |
| --- | --- |
| CC1(c2nc(C#Cc3ccc(F)cc3)ccc2F)CS(=O)(=O)C(C)(C)C(=N)N1 (stereo not drawn) [Example 31a] | 41% |
